Test results published in US10710978B2, “STK4 inhibitors for treatment of hematologic malignancies” (Dana-Farber Cancer Institute, Inc., priority 2015, dated 2020).
Like-named read-outs stand apart in the source and are kept apart here.

Legend:
Test in all cases: KiNativ assay
Format in all cases: binding
GCN2 domain2 = GCN2 domain2 (Homo sapiens (Human), UniProt Q9P2K8); details: H929 live cell
Procedure: (§1) Biochemical IC50s of the compounds of the present disclosure against various kinases were measured in a KiNativ assay. Compounds were screened in duplicate at 10 μM in H929 live cell. IC50 was measured via Mass spectroscopy (MS).

CaMK2d = CaMK2d (Homo sapiens (Human), UniProt Q13557); details: H929 live cell
Procedure: as §1

AurB = AurB (Homo sapiens (Human), UniProt Q96GD4); details: H929 live cell
Procedure: as §1

Erk2 = Erk2 (Homo sapiens (Human), UniProt P28482); details: H929 live cell
Procedure: as §1

[1] = tested on: ZC1/HGK, ZC2/TNIK, ZC3/MINK; details: H929 live cell
Procedure: as §1

TAO1, TAO3 = details: H929 live cell
Procedure: as §1

MAP2K1, MAP2K2 = details: 10 μM, H929 live cell
Procedure: as §1

CaMK2g = CaMK2g (Homo sapiens (Human), UniProt Q13555); details: H929 live cell
Procedure: as §1

NEK8 = NEK8 (Homo sapiens (Human), UniProt Q86SG6); details: H929 live cell
Procedure: as §1

RSK1 domain1 = RSK1 domain1 (Homo sapiens (Human), UniProt Q15418); details: H929 live cell
Procedure: as §1

ZAK = ZAK (Homo sapiens (Human), UniProt Q9NYL2); details: H929 live cell
Procedure: as §1

LKB1 = LKB1 (Homo sapiens (Human), UniProt Q15831); details: H929 live cell
Procedure: as §1

FER = FER (Homo sapiens (Human), UniProt P16591); details: H929 live cell
Procedure: as §1

MLKL = MLKL (Homo sapiens (Human), UniProt Q8NB16); details: H929 live cell
Chain of MLKL (Q8NB16 whole entry): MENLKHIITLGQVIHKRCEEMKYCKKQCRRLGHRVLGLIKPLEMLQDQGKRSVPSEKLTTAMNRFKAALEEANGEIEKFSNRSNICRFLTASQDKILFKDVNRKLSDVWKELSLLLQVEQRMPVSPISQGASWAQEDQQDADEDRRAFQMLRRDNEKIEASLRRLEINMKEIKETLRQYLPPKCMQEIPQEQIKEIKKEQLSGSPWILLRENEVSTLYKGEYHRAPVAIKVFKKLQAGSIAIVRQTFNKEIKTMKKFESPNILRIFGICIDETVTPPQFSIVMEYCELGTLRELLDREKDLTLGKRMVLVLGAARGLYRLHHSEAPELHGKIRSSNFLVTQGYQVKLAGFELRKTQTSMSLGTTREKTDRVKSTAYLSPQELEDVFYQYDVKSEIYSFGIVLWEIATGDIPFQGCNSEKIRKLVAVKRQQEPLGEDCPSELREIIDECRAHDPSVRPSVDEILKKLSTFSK
Procedure: as §1

PRPK = PRPK (Homo sapiens (Human), UniProt Q96S44); details: H929 live cell
Procedure: as §1

PEK = PEK (Homo sapiens (Human), UniProt Q9NZJ5); details: H929 live cell
Procedure: as §1

NEK6, NEK7 = details: H929 live cell
Procedure: as §1

PKD3 = PKD3 (Homo sapiens (Human), UniProt O94806); details: H929 live cell
Procedure: as §1

GSK3B = GSK3B (Homo sapiens (Human), UniProt P49841); details: H929 live cell
Procedure: as §1

GSK3A = GSK3A (Homo sapiens (Human), UniProt P49840); details: H929 live cell
Procedure: as §1

MAP3K2 = MAP3K2 (Homo sapiens (Human), UniProt Q9Y2U5); details: H929 live cell
Procedure: as §1

LYN = LYN (Homo sapiens (Human), UniProt P07948); details: H929 live cell
Procedure: as §1

PIP4K2A = PIP4K2A (Homo sapiens (Human), UniProt P48426); details: H929 live cell
Procedure: as §1

NuaK2 = NuaK2 (Homo sapiens (Human), UniProt Q9H093); details: H929 live cell
Procedure: as §1

ILK = ILK (Homo sapiens (Human), UniProt Q13418); details: H929 live cell
Chain of ILK (Q13418 whole entry): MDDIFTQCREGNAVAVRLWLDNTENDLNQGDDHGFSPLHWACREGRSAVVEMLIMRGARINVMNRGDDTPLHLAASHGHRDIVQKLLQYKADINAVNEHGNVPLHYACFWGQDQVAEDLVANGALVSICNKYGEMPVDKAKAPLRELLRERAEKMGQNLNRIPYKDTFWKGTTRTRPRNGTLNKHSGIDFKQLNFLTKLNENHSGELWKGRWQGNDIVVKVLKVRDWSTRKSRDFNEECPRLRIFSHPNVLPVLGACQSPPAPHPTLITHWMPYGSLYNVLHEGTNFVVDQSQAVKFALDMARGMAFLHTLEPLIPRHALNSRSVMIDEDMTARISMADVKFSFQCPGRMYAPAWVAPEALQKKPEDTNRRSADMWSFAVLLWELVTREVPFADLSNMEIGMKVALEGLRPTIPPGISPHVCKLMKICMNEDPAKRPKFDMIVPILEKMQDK
Procedure: as §1

PKCz = PKCz (Homo sapiens (Human), UniProt Q05513); details: H929 live cell
Procedure: as §1

JNK1, JNK2, JNK3 = details: H929 live cell
Procedure: as §1

IKKb = IKKb (Homo sapiens (Human), UniProt O14920); details: H929 live cell
Procedure: as §1

MAP3K2, MAP3K3 = details: H929 live cell
Procedure: as §1

IRE1 = IRE1 (Homo sapiens (Human), UniProt O75460); details: H929 live cell
Procedure: as §1

CaMKK2 = CaMKK2 (Homo sapiens (Human), UniProt Q96RR4); details: H929 live cell
Chain of CaMKK2 (Q96RR4 whole entry): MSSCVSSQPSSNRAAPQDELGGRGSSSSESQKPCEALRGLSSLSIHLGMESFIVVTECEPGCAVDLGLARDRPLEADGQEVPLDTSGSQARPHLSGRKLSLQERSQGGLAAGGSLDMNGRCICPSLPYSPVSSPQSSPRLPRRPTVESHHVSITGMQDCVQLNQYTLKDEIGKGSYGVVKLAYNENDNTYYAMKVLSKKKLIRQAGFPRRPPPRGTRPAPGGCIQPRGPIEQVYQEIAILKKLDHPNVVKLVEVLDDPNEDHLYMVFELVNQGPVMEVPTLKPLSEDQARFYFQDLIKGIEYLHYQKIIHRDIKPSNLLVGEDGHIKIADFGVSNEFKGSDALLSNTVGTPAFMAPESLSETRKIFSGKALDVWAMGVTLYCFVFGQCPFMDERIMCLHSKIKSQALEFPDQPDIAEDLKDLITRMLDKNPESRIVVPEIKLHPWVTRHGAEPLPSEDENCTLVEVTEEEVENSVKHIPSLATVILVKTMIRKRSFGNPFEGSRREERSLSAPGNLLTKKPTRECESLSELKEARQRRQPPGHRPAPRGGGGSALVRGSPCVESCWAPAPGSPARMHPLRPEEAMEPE
Procedure: as §1

SNRK = SNRK (Homo sapiens (Human), UniProt Q9NRH2); details: H929 live cell
Chain of SNRK (Q9NRH2 whole entry): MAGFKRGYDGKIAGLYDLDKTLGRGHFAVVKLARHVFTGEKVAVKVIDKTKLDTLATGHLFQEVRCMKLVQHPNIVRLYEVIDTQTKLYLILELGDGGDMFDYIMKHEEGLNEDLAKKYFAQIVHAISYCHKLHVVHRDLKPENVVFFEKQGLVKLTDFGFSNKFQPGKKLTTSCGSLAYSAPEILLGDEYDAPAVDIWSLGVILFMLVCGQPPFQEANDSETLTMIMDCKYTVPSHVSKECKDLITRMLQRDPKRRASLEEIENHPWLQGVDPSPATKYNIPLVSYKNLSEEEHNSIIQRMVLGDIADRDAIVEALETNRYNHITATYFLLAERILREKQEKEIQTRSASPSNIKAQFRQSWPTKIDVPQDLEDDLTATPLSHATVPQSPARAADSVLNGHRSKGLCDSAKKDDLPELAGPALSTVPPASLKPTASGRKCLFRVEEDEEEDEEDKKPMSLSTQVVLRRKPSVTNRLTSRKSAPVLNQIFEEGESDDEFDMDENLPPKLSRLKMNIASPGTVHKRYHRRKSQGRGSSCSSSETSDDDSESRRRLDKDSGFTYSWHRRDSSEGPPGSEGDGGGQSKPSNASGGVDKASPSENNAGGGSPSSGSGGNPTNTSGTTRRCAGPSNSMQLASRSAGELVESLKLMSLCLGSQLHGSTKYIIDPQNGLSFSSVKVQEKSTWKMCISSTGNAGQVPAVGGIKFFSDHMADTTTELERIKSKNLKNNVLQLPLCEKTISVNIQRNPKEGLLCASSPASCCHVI
Procedure: as §1

STLK5 = STLK5 (Homo sapiens (Human), UniProt Q7RTN6); details: H929 live cell
Procedure: as §1

LATS1 = LATS1 (Homo sapiens (Human), UniProt O95835); details: H929 live cell
Chain of LATS1 (O95835 whole entry): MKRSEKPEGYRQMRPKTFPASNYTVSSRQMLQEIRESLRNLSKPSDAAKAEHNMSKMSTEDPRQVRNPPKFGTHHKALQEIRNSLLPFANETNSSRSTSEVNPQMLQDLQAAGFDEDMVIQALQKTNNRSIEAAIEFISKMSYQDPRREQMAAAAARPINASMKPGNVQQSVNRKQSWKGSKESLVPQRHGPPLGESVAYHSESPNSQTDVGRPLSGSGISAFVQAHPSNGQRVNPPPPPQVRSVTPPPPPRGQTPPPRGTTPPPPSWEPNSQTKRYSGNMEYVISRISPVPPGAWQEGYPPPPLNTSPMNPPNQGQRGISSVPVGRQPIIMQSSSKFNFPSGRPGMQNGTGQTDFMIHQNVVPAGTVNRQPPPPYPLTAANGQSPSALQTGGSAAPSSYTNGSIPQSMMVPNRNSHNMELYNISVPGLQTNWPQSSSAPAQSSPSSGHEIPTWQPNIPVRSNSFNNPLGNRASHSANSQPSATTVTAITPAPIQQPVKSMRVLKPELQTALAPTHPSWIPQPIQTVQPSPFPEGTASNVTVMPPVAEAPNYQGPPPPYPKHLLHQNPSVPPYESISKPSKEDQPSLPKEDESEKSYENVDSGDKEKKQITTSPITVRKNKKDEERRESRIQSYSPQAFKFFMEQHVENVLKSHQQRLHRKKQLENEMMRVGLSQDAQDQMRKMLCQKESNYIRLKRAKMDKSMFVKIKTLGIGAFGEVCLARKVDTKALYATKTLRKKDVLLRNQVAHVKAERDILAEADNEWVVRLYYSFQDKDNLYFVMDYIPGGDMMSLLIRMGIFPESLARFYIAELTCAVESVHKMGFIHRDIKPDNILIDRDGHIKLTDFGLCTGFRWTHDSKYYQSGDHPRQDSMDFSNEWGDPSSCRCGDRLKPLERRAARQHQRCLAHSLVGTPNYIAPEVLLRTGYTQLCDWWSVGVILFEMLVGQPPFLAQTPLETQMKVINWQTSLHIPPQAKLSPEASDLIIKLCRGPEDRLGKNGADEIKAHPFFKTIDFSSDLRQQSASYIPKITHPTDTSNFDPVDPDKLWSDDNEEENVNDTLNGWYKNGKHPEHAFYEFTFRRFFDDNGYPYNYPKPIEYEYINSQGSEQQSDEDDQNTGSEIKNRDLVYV
Procedure: as §1

Chain of GCN2 domain2 (Q9P2K8 whole entry, the tested form may be a part): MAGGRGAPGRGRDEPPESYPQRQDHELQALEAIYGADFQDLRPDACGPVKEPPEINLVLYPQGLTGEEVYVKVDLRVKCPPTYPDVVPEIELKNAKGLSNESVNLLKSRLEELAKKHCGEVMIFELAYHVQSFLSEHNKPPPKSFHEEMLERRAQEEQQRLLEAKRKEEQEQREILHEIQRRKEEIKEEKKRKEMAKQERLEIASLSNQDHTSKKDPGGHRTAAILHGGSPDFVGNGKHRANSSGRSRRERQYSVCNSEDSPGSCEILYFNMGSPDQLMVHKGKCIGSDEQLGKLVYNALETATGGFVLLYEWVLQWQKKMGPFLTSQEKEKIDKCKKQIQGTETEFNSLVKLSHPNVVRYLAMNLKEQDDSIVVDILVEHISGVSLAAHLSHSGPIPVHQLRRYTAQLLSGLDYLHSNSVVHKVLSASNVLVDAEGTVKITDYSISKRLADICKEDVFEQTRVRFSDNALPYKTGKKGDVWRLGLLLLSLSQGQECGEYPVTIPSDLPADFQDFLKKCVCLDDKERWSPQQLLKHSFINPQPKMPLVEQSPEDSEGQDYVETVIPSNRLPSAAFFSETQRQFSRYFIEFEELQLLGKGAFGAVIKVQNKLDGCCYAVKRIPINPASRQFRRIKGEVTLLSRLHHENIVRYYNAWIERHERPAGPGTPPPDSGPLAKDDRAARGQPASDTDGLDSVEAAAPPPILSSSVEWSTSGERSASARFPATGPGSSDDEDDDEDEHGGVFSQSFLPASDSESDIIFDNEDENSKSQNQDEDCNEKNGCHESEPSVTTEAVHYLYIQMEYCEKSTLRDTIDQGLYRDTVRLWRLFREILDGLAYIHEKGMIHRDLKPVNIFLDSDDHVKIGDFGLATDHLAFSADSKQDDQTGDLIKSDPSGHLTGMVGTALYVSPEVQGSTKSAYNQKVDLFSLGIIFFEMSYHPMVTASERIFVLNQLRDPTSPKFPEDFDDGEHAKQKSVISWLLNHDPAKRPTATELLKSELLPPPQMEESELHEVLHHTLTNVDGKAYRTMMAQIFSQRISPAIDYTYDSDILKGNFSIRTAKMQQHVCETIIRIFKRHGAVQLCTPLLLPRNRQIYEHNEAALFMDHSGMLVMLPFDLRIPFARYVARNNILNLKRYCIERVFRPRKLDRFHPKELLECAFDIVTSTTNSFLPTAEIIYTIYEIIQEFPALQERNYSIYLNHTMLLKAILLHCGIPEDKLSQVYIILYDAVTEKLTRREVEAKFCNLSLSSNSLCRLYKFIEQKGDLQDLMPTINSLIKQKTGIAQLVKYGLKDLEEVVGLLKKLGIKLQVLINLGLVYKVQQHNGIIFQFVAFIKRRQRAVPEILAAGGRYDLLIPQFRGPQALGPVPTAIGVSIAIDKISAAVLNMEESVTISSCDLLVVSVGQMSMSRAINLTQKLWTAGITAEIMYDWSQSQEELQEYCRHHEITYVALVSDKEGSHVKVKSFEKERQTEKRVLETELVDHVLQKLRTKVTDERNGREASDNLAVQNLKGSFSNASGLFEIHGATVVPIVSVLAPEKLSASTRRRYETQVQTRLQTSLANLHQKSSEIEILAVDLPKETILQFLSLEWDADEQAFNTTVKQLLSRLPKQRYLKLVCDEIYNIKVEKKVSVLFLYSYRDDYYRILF

## Nc1ncc(-c2cccc3ncsc23)cc1-c1ccc2c(c1)CCNC2=O [Compound I-13, 6-(2-amino-5-(benzo[d]thiazol-7-yl)pyridin-3-yl)-3,4-dihydroisoquinolin-1(2H)-one]
GCN2 domain2; read-out: % inhibition (range)
  inhibition at 10 µM: 0%
GCN2 domain2; read-out: inhibition (10 μM)
  inhibition at 10 µM: 13.5%
CaMK2d; read-out: % inhibition (range)
  inhibition at 10 µM: 0%
CaMK2d; read-out: inhibition (10 μM)
  inhibition at 10 µM: -4.3%
AurB; read-out: % inhibition (range)
  inhibition at 10 µM: 0%
AurB; read-out: inhibition (10 μM)
  inhibition at 10 µM: 20.7%
Erk2; read-out: % inhibition (range)
  inhibition at 10 µM: 50 to 75%
Erk2; read-out: inhibition (10 μM)
  inhibition at 10 µM: 74.6%
[1]; 10 μM
  % inhibition (range): >90%
[1]
  inhibition (10 μM): 97.0%
TAO1, TAO3; 10 μM
  % inhibition (range): 0.0%
TAO1, TAO3
  inhibition (10 μM): 10.3%
MAP2K1, MAP2K2
  % inhibition (range): 0.0%
CaMK2g; read-out: % inhibition (range)
  inhibition at 10 µM: 0%
CaMK2g; read-out: inhibition (10 μM)
  inhibition at 10 µM: -13.6%
NEK8; read-out: % inhibition (range)
  inhibition at 10 µM: 0%
NEK8; read-out: inhibition (10 μM)
  inhibition at 10 µM: 10.6%
RSK1 domain1; read-out: % inhibition (range)
  inhibition at 10 µM: 0%
RSK1 domain1; read-out: inhibition (10 μM)
  inhibition at 10 µM: 3.3%
ZAK; read-out: % inhibition (range)
  inhibition at 10 µM: 35 to 50%
ZAK; read-out: inhibition (10 μM)
  inhibition at 10 µM: 44.9%
LKB1; read-out: % inhibition (range)
  inhibition at 10 µM: 0%
LKB1; read-out: inhibition (10 μM)
  inhibition at 10 µM: 4.3%
FER; read-out: % inhibition (range)
  inhibition at 10 µM: 0%
FER; read-out: inhibition (10 μM)
  inhibition at 10 µM: 4.2%
MLKL; read-out: % inhibition (range)
  inhibition at 10 µM: 0%
MLKL; read-out: inhibition (10 μM)
  inhibition at 10 µM: 15.2%
PRPK; read-out: % inhibition (range)
  inhibition at 10 µM: 0%
PRPK; read-out: inhibition (10 μM)
  inhibition at 10 µM: -6.4%
PEK; read-out: % inhibition (range)
  inhibition at 10 µM: 0%
PEK; read-out: inhibition (10 μM)
  inhibition at 10 µM: -40.8%
NEK6, NEK7; 10 μM
  % inhibition (range): 0.0%
NEK6, NEK7
  inhibition (10 μM): −20.1%
PKD3; read-out: % inhibition (range)
  inhibition at 10 µM: 50 to 75%
PKD3; read-out: inhibition (10 μM)
  inhibition at 10 µM: 69.4%
GSK3B; read-out: % inhibition (range)
  inhibition at 10 µM: 75 to 90%
GSK3B; read-out: inhibition (10 μM)
  inhibition at 10 µM: 88.4%
GSK3A; read-out: % inhibition (range)
  inhibition at 10 µM: > 90%
GSK3A; read-out: inhibition (10 μM)
  inhibition at 10 µM: 91.6%
MAP3K2; read-out: % inhibition (range)
  inhibition at 10 µM: 0%
MAP3K2; read-out: inhibition (10 μM)
  inhibition at 10 µM: -23.5%
LYN; read-out: % inhibition (range)
  inhibition at 10 µM: 0%
LYN; read-out: inhibition (10 μM)
  inhibition at 10 µM: -41.4%
PIP4K2A; read-out: % inhibition (range)
  inhibition at 10 µM: 0%
PIP4K2A; read-out: inhibition (10 μM)
  inhibition at 10 µM: 2.3%
NuaK2; read-out: % inhibition (range)
  inhibition at 10 µM: 50 to 75%
NuaK2; read-out: inhibition (10 μM)
  inhibition at 10 µM: 53.9%
ILK; read-out: % inhibition (range)
  inhibition at 10 µM: 0%
ILK; read-out: inhibition (10 μM)
  inhibition at 10 µM: 1.6%
PKCz; read-out: % inhibition (range)
  inhibition at 10 µM: 0%
PKCz; read-out: inhibition (10 μM)
  inhibition at 10 µM: 15.5%
JNK1, JNK2, JNK3; 10 μM
  % inhibition (range): 0.0%
JNK1, JNK2, JNK3
  inhibition (10 μM): 6.0%
IKKb; read-out: % inhibition (range)
  inhibition at 10 µM: 0%
IKKb; read-out: inhibition (10 μM)
  inhibition at 10 µM: -3.3%
MAP3K2, MAP3K3; 10 μM
  % inhibition (range): 0.0%
MAP3K2, MAP3K3
  inhibition (10 μM): 0.2%
IRE1; read-out: % inhibition (range)
  inhibition at 10 µM: 0%
IRE1; read-out: inhibition (10 μM)
  inhibition at 10 µM: -17%
CaMKK2; read-out: % inhibition (range)
  inhibition at 10 µM: 50 to 75%
CaMKK2; read-out: inhibition (10 μM)
  inhibition at 10 µM: 74.9%
SNRK; read-out: % inhibition (range)
  inhibition at 10 µM: 0%
SNRK; read-out: inhibition (10 μM)
  inhibition at 10 µM: 6.2%
STLK5; read-out: % inhibition (range)
  inhibition at 10 µM: 0%
STLK5; read-out: inhibition (10 μM)
  inhibition at 10 µM: 9.9%
LATS1; read-out: % inhibition (range)
  inhibition at 10 µM: 0%
LATS1; read-out: inhibition (10 μM)
  inhibition at 10 µM: 14.7%
